Measurements from US11819532B2, “Peptide macrocycles against Acinetobacter baumannii” (Hoffmann-La Roche Inc., priority 2018, dated 2023).
Where two headings read alike, the source gives them in different places.

Key:
[1] = test system: A. baumannii ATCC 17978; assay: 50% growth inhibitory concentration (IC50) determination, antimicrobial susceptibility testing; assay type: cell-based; conditions: Acinetobacter baumannii
Protocol: The in vitro antimicrobial activity of the compounds was alternatively determined according to the following procedure:
The assay used a 10-points Iso-Sensitest broth medium to measure quantitatively the in vitro activity of the compounds against A. baumannii ATCC 17978.
Stock compounds in DMSO were serially twofold diluted (e.g. range from 50 to 0.097 μM or from 10 to 0.020 μM final concentration) in 384 wells microtiter plates and inoculated with 49 μl the bacterial suspension in Iso-Sensitest medium to have a final cell concentration of ˜5×10^(5)CFU/ml in a final volume/well of 50 μl/well. Microtiter plates were incubated at 35±2° C.
Bacterial cell growth was determined with the measurement of optical density at X=600 nm each 20 minutes over a time course of 16h.
Growth inhibition was calculated during the logarithmic growth of the bacterial cells with determination of the concentration inhibiting 50% (IC50) and 90% (IC90) of the growth.
Table 1 provides the 50% growth inhibitory concentrations (IC50) in micromoles per liter of the compounds of present invention obtained against the A. baumannii strain ATCC17978.

[2] = Plasma precipitation screening assay; parameters: species or system rat
Protocol: An aliquot (10 μL) of compound solubilized in physiological buffer or the formulation used for its parenteral administration in vivo, and of various dilutions thereof in phosphate-buffered saline (PBS), is mixed 1:1 with rat plasma. After 10 minutes incubation at room temperature the UV-absorption of the mixtures is measured and compared to absorption of blank plasma or plasma with vehicle solution. A significant (often concentration dependent) increase of absorption is indicative of precipitation.
Whole blood is obtained from WISTAR rats (Hanbrl:Wist SPF) under terminal anaesthesia after intraperitoneal injection of a pentobarbital solution (from animals euthanized for collection of tissue for other experimental purposes). Blood is collected in 1.2 mL of Heparin S-Monovette tubes (Sarstedt) for the preparation of heparin plasma.
The tubes are then centrifuged for 5 min at 5200 g at room temperature to isolate the plasma supernatant. The plasma is used in the assay within 48 h of collection (storage at 4° C.).
Test compounds are received as powder or formulated. When obtained as powder, they are solubilized in 0.9% aq. sodium chloride solution in order to get the highest indicated concentration to be tested. The solubility is visually checked and the solutions are filtered using 0.45 PVDF hydrophilic filters (Durapore®, Darmstadt, Germany), to remove possible solid impurities. pH of this initial solution might be measured in the filtered stock solutions, before proceeding to prepare a compound dilution series in PBS (1:1-dilution steps).
The assay is conducted in 384-well plates. 10 μL of rat plasma is added to 10 μL of the various compound solutions. The assay is performed in duplicate. 10 μL of vehicle (0.9% aq. sodium chloride solution, PBS) added to the plasma is used as a negative control. The absorption is measured at 362 nm.
Raw data obtained are absorbance data. The difference between absorbance of the sample and mean absorbance of vehicle is calculated. The minimal effect concentration (MEC) is defined as the lowest concentration giving an absorbance difference, OD362≥0.05.

[3] = 50% growth inhibition, A. baumannii strain ATCC17978, Iso-Sensitest medium, read-out: IC50 ATCC17978
[4] = Wistar (Hanbrl:Wist SPF), rat, 10 min
[5] = ATCC17978, read-out: IC50 ATCC17978
[6] = minimal effect concentration, lowest concentration giving absorbance difference OD362≥0.05, rat plasma 1:1, 10 minutes room temperature

| Structure (SMILES) | IC50 [1, 3] [nM] | Plasma precipitation MEC [2, 4] [µmol/L] | IC50 [1, 5] [nM] | Plasma precipitation MEC [2, 6] [µmol/L] |
| --- | --- | --- | --- | --- |
| CN1C(=O)[C@H](CCCCN)NC(=O)[C@H](CCCN)NCc2nccnc2Sc2c(Cl)ccc(-c3ccc(C(=O)O)c(Cl)c3)c2CNC(=O)[C@@H]1Cc1c[nH]c2ccccc12 (racemic) [Example 8.01, 2-chloro-4-[rac-(11S,14S,17S)-14-(4-aminobutyl)-11-(3-aminopropyl)-25-chloro-17-(1H-indo1-3-ylmethyl)-16-methyl-12,15,18-trioxo-2-thia-4,7,10,13,16,19-hexazatricyclo[19.4.0.03,8]pentacosa-1(21),3,5,7,22,24-hexaen-22-yl]benzoic acid] | 28 | 760 | – | – |
| Cc1[nH]c2ccccc2c1C[C@H]1C(=O)NCc2c(-c3ccn(CC(=O)O)c(=O)c3)ccc(Cl)c2Sc2ncccc2CN[C@@H](CCCN)C(=O)N[C@@H](CCCCN)C(=O)N1C [Example 7.01, 2-[4-[(1 S,14S,17S)-14-(4-Aminobutyl)-11-(3-aminopropyl)-25-chloro-16-methyl-17-[(2-methyl-1H-indol-3-yl)methyl]-12,15,18-trioxo-2-thia-4,10,13,16,19-pentazatricyclo[19.4.0.03,8]pentacosa-1(25), 3(8), 4,6,21,23-hexaen-22-yl]-2-oxo-1-pyridyl]acetic Acid] | 46 | 1650 | – | – |
| CN1C(=O)[C@H](CCCCN)NC(=O)[C@H](CCCN)NCc2cccnc2Sc2c(F)ccc(-c3ccn(CC(=O)O)c(=O)c3)c2CNC(=O)[C@@H]1Cc1c[nH]c2ccccc12 [Example 9.01, 2-[4-[(11S,14S,17S)-14-(4-Aminobutyl)-11-(3-aminopropyl)-25-fluoro-17-(1H-indo1-3-ylmethyl)-16-methyl-12,15,18-trioxo-2-thia-4,10,13,16,19-pentazatricyclo[19.4.0.03,8]pentacosa-1(25),3(8),4,6,21,23-hexaen-22-yl]-2-oxo-1-pyridyl]acetic acid] | 81 | >1690 | – | – |
| CN1C(=O)[C@H](CCCCN)NC(=O)[C@H](CCCN)NCc2cccnc2Sc2cncc(-c3ccc(C(=O)O)cc3)c2CNC(=O)[C@@H]1Cc1c[nH]c2ccccc12 [Example 18.00, 4-[(11S,14S,17S)-14-(4-Aminobutyl)-1-(3-aminopropyl)-17-(1H-indol-3-ylmethyl)-16-methyl-12,15,18-trioxo-2-thia-4,10,13,16,19,24-hexazatricyclo[19.4.0.03,8]pentacosa-1(25), 3(8), 4,6,21,23-hexaen-22-yl]benzoic Acid] | 75 | >1760 | – | – |
| CN1C(=O)[C@H](CCCN)NC(=O)[C@H](CCCN)NCc2cccnc2Sc2c(F)ccc(-c3ccc(C(=O)O)nc3)c2CNC(=O)[C@@H]1Cc1c[nH]c2ccccc12 [Example 14.01, 5-[(11S,14S,17S)-11,14-bis(3-Aminopropyl)-25-fluoro-17-(1H-indol-3-ylmethyl)-16-methyl-12,15,18-trioxo-2-thia-4,10,13,16,19-pentazatricyclo[19.4.0.03,8]pentacosa-1(25), 3(8), 4,6,21,23-hexaen-22-yl]pyridine-2-carboxylic Acid] | 90 | 880 | – | – |
| COc1cc(-c2ccc(Cl)c3c2CNC(=O)[C@H](Cc2c[nH]c4ccccc24)N(C)C(=O)[C@H](CCCCN)NC(=O)[C@H](CCCN)NCc2nccnc2S3)ccc1C(=O)O (racemic) [Example 8.03, 2-methoxy-4-[rac-(11S,14S,17S)-14-(4-aminobutyl)-11-(3-aminopropyl)-25-chloro-17-(1H-indo1-3-ylmethyl)-16-methyl-12,15,18-trioxo-2-thia-4,7,10,13,16,19-hexazatricyclo [19.4.0.03,8]pentacosa-1(25),3(8),4,6,21,23-hexaen-22-yl]benzoic acid] | 78 | 760 | – | – |
| COc1ccc(-c2ccc(C(=O)O)cc2)c2c1Sc1ncccc1CN[C@@H](CCCN)C(=O)N[C@@H](CCCCN)C(=O)N(C)[C@@H](Cc1c[nH]c3ccccc13)C(=O)NC2 [Example 11.00, 4-[(11S,14S,17S)-14-(4-Aminobutyl)-11-(3-aminopropyl)-17-(1H-indol-3-ylmethyl)-25-methoxy-16-methyl-12,15,18-trioxo-2-thia-4,10,13,16,19-pentazatricyclo[19.4.0.03,8]pentacosa-1(25), 3(8), 4,6,21,23-hexaen-22-yl]benzoic Acid] | 71 | 1720 | – | – |
| CN1C(=O)[C@H](CCCCN)NC(=O)[C@H](CCCN)NCc2nccnc2Sc2c(Cl)ccc(-c3ccc(C(=O)O)c(F)c3)c2CNC(=O)[C@@H]1Cc1c[nH]c2ccccc12 [Example 8.02, 4-[(11S,14S,17S)-14-(4-aminobutyl)-11-(3-aminopropyl)-25-chloro-17-(1H-indo1-3-ylmethyl)-16-methyl-12,15,18-trioxo-2-thia-4,7,10,13,16,19-hexazatricyclo[19.4.0.03,8]pentacosa-1(21),3,5,7,22,24-hexaen-22-yl]-2-fluoro-benzoic acid] | 19 | 380 | – | – |
| CN1C(=O)[C@H](CCCCN)NC(=O)[C@H](CCCN)NCc2cccnc2Sc2c(F)ccc(-c3ccc(C(=O)O)cc3)c2CNC(=O)[C@@H]1Cc1c[nH]c2ccccc12 [Example 9.00, 4-[(1 S,14S,17S)-14-(4-aminobutyl)-1-(3-aminopropyl)-25-fluoro-17-(1H-indol-3-ylmethyl)-16-methyl-12,15,18-trioxo-2-thia-4,10,13,16,19-pentazatricyclo[19.4.0.03,8]pentacosa-1(25), 3(8), 4,6,21,23-hexaen-22-yl]benzoic Acid] | 20 | 870 | – | – |
| CN1C(=O)[C@H](CCCCN)NC(=O)[C@H](CCCN)NCc2cccnc2Sc2c(Cl)ccc(Cl)c2CNC(=O)[C@@H]1Cc1c[nH]c2ccccc12 [Example 38 of WO2017/072062, reference compound] | – | – | 42 | 52 |
| CN1C(=O)[C@H](CCCCN)NC(=O)[C@H](CCCN)NCc2cccnc2Sc2c(Cl)ccc(-c3ccc(C(=O)O)cc3)c2CNC(=O)[C@@H]1Cc1c[nH]c2ccccc12 [Example 239 of WO2017/072062, reference compound] | – | – | 20 | 470 |
| Cc1ccc(-c2ccn(CC(=O)O)c(=O)c2)c2c1Sc1ncccc1CN[C@@H](CCCN)C(=O)N[C@@H](CCCCN)C(=O)N(C)[C@@H](Cc1c[nH]c3ccccc13)C(=O)NC2 [Example 10.01, 2-[4-[(1S,4S,17S)-14-(4-Aminobutyl)-11-(3-aminopropyl)-17-(1H-indol-3-ylmethyl)-16,25-dimethyl-12,15,18-trioxo-2-thia-4,10,13,16,19-pentazatricyclo[19.4.0.03,8]pentacosa-1(25), 3(8), 4,6,21,23-hexaen-22-yl]-2-oxo-1-pyridyl]acetic Acid] | 78 | >1700 | – | – |
| Cc1ccc(-c2ccc(C(=O)O)cc2)c2c1Sc1ncccc1CN[C@@H](CCCN)C(=O)N[C@@H](CCCCN)C(=O)N(C)[C@@H](Cc1c[nH]c3ccccc13)C(=O)NC2 [Example 10.00, 4-[(11S,14S,17S)-14-(4-Aminobutyl)-1-(3-aminopropyl)-17-(1H-indol-3-ylmethyl)-16,25-dimethyl-12,15,18-trioxo-2-thia-4,10,13,16,19-pentazatricyclo[19.4.0.03,8]pentacosa-1(25), 3(8), 4,6,21,23-hexaen-22-yl]benzoic Acid] | 24 | 870 | – | – |
| CN1C(=O)[C@H](CCCCN)NC(=O)[C@H](CCCN)NCc2cccnc2Sc2c(Cl)ccc(-c3ccc(C(=O)O)c(S(C)(=O)=O)c3)c2CNC(=O)[C@@H]1Cc1c[nH]c2ccccc12 [Example 2.00, 4-[(11S,14S,17S)-14-(4-Aminobutyl)-11-(3-aminopropyl)-25-chloro-17-(1H-indol-3-ylmethyl)-16-methyl-12,15,18-trioxo-2-thia-4,10,13,16,19-pentazatricyclo[19.4.0.03,8]pentacosa-1(25), 3(8), 4,6,21,23-hexaen-22-yl]-2-methylsulfonyl-benzoic Acid] | 73 | 950 | – | – |
